Experimental data: the kinase profiling compilation of Christmann-Franck et al. (2016)

Columns and labels:
Assay in all cases: KINOMEscan competition binding
Details in all cases: compound 10.0 µM
MARK4 (human) = MARK4 (human) (UniProt Q96L34)
MAP4K2 (human) = MAP4K2 (human) (UniProt Q12851)
STK16 (human) = STK16 (human) (UniProt O75716)
STK38L (human) = STK38L (human) (UniProt Q9Y2H1)
PRKX (human) = PRKX (human) (UniProt P51817)
MST1R (human) = MST1R (human) (UniProt Q04912)
[1] = biological target: JAK3 JH1 catalytic (human) (UniProt P52333)
Chain of JAK3 JH1 catalytic (human) (P52333 whole entry, looked up): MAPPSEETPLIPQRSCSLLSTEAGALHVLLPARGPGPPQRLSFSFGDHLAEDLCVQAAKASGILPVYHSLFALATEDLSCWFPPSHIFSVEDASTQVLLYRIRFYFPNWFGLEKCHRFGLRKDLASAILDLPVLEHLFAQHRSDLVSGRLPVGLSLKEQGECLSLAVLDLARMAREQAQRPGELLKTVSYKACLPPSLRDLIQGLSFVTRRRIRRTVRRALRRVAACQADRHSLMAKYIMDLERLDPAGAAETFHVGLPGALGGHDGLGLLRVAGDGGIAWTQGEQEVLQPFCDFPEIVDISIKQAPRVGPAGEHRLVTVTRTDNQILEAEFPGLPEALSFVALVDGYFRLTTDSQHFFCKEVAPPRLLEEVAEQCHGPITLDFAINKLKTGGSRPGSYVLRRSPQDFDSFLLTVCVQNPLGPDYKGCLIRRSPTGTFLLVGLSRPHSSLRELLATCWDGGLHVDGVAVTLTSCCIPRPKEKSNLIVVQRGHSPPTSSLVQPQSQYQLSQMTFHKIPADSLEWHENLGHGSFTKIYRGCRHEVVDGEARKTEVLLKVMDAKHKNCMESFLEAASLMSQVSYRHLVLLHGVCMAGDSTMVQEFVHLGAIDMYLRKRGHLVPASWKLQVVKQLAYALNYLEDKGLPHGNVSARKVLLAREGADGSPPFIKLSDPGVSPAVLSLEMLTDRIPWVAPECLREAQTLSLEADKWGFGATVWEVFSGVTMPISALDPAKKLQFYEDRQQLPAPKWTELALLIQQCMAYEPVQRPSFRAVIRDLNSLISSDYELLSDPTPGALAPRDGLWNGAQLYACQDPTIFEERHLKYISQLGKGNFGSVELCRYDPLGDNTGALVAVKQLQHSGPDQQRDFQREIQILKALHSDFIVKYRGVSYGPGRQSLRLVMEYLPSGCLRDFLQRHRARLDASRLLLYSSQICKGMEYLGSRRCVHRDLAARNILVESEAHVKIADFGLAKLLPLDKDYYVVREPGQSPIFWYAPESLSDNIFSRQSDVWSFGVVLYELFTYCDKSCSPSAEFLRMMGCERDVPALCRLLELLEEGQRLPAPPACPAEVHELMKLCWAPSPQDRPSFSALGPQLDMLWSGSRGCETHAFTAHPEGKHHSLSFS

NEK6 (human) = NEK6 (human) (UniProt Q9HC98)
CAMKK1 (human) = CAMKK1 (human) (UniProt Q8N5S9)
MARK1 (human) = MARK1 (human) (UniProt Q9P0L2)
ZAP70 (human) = ZAP70 (human) (UniProt P43403)
STK25 (human) = STK25 (human) (UniProt O00506)
SLK (human) = SLK (human) (UniProt Q9H2G2)
SIK2 (human) = SIK2 (human) (UniProt Q9H0K1)
Chain of SIK2 (human) (Q9H0K1 whole entry, looked up): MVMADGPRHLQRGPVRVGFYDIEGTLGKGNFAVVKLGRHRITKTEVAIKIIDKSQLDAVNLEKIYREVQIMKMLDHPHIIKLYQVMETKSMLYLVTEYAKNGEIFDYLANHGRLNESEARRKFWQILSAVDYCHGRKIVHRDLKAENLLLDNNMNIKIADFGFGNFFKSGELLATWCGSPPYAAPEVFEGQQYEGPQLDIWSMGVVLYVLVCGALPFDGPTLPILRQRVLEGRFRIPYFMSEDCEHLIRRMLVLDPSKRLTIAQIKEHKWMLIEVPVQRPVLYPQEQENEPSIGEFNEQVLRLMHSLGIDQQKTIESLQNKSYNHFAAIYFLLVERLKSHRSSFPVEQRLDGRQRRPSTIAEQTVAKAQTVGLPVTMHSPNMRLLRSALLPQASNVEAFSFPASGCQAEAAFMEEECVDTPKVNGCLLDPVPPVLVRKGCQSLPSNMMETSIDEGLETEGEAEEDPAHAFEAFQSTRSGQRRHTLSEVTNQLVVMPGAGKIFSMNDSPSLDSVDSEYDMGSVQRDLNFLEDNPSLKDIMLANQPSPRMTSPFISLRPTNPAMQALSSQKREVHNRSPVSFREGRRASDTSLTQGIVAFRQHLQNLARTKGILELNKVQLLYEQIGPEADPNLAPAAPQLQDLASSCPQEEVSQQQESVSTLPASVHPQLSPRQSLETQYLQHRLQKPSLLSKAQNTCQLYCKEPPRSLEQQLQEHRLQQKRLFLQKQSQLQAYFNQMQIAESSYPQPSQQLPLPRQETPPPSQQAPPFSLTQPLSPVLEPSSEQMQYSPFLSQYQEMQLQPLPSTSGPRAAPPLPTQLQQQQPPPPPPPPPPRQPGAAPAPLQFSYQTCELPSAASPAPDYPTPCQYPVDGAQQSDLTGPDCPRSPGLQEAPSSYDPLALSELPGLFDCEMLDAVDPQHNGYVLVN

INSRR (human) = INSRR (human) (UniProt P14616)
CDC42BPA (human) = CDC42BPA (human) (UniProt Q5VT25)
CLK3 (human) = CLK3 (human) (UniProt P49761)
EPHA3 (human) = EPHA3 (human) (UniProt P29320)
CAMK2D (human) = CAMK2D (human) (UniProt Q13557)
Chain of CAMK2D (human) (Q13557 whole entry, looked up): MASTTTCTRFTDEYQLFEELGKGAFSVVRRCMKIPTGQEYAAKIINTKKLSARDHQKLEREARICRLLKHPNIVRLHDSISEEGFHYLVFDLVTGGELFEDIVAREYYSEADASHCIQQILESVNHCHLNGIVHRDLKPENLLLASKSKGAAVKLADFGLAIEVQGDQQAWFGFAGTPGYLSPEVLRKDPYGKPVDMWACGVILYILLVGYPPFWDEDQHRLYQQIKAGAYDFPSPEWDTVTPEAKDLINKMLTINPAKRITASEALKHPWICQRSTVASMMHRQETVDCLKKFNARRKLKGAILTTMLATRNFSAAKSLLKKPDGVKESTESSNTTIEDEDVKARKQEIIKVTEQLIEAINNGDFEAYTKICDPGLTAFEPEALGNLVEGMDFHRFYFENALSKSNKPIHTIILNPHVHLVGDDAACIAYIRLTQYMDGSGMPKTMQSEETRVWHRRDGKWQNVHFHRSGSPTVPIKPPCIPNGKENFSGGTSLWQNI

ROS1 (human) = ROS1 (human) (UniProt P08922)
CDK16 (human) = CDK16 (human) (UniProt Q00536)
ALK (human) = ALK (human) (UniProt Q9UM73)
PRKACB (human) = PRKACB (human) (UniProt P22694)
RPS6KA1 KD1 (human) = RPS6KA1 KD1 (human) (UniProt Q15418)
MAPK3 (human) = MAPK3 (human) (UniProt P27361)
[2] = biological target: JAK1 JH2 pseudokinase (human) (UniProt P23458)
Chain of JAK1 JH2 pseudokinase (human) (P23458 whole entry, looked up): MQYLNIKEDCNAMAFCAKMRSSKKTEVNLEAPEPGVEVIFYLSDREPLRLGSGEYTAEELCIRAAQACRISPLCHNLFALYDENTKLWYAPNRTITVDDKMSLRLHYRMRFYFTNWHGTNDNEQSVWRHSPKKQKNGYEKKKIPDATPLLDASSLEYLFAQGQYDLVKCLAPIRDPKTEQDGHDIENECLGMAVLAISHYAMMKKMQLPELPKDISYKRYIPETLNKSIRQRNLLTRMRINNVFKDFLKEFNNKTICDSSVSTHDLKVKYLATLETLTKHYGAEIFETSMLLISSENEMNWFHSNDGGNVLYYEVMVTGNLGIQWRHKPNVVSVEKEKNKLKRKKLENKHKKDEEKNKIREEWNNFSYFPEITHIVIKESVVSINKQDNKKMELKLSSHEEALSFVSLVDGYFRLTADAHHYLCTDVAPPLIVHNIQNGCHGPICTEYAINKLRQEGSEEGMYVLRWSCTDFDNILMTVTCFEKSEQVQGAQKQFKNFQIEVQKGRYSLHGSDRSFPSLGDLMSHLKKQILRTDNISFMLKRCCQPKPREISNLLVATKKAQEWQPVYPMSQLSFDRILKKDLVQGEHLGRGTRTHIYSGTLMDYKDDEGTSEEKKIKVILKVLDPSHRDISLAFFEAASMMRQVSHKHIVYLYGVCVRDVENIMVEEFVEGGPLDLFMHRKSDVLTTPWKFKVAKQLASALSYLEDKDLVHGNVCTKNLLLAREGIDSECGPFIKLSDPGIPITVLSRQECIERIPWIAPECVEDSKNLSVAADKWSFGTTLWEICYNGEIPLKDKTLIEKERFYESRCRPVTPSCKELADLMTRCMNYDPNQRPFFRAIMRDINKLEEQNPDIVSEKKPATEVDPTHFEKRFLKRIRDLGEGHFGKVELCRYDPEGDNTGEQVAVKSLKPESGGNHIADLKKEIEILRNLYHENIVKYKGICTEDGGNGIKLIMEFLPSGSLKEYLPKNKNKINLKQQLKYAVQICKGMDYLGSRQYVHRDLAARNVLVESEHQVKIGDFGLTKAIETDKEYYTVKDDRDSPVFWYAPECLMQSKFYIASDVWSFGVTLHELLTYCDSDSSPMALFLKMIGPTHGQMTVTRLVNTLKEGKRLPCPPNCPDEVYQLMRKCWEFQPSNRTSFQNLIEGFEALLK

IKBKE (human) = IKBKE (human) (UniProt Q14164)
TGFBR2 (human) = TGFBR2 (human) (UniProt P37173)
NEK9 (human) = NEK9 (human) (UniProt Q8TD19)
GSK3A (human) = GSK3A (human) (UniProt P49840)
MARK2 (human) = MARK2 (human) (UniProt Q7KZI7)
CDK9 (human) = CDK9 (human) (UniProt P50750)
MYO3A (human) = MYO3A (human) (UniProt Q8NEV4)
SRPK2 (human) = SRPK2 (human) (UniProt P78362)
LATS2 (human) = LATS2 (human) (UniProt Q9NRM7)
CLK1 (human) = CLK1 (human) (UniProt P49759)
SYK (human) = SYK (human) (UniProt P43405)
AXL (human) = AXL (human) (UniProt P30530)
PRKAA1 (human) = PRKAA1 (human) (UniProt Q13131)
CSNK1A1L (human) = CSNK1A1L (human) (UniProt Q8N752)

Chain of PRKX (human) (P51817 whole entry, looked up): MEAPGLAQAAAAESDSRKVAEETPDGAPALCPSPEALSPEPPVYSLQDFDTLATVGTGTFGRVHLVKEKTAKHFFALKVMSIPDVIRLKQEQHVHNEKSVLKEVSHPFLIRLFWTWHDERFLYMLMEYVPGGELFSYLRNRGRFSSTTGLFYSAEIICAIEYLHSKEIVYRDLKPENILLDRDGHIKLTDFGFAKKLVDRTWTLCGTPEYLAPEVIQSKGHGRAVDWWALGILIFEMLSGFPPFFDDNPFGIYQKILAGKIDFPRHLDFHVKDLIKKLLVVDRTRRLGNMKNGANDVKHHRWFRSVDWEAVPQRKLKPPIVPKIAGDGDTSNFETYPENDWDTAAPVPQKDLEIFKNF
Chain of MAP4K2 (human) (Q12851 whole entry, looked up): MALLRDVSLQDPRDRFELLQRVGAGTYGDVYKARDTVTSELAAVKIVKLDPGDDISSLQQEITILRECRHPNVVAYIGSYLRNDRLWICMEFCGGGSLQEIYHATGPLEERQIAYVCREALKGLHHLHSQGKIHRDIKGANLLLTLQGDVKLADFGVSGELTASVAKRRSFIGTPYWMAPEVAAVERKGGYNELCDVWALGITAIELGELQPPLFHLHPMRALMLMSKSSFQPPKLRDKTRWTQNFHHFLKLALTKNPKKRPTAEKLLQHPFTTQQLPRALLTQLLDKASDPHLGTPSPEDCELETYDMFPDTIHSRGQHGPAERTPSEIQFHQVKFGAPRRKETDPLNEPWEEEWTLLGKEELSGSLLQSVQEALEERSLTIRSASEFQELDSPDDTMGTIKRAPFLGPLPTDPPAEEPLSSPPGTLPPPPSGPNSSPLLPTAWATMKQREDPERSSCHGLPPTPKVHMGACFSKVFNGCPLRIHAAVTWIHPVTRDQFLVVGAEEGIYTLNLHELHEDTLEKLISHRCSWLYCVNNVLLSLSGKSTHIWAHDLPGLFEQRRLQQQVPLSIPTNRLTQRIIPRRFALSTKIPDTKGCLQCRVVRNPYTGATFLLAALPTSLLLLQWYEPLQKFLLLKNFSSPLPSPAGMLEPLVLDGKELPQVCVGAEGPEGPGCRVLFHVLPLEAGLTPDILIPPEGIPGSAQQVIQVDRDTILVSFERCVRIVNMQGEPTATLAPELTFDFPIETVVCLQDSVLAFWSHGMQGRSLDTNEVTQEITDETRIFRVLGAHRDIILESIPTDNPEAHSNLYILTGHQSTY

OCCCNc1cc(-c2ccnc(Nc3cccc(Cl)c3)n2)ccn1
kinase still bound, per cent of control (MARK4 (human)): 100% | kinase still bound, per cent of control (MAP4K2 (human)): 100% | kinase still bound, per cent of control (STK16 (human)): 100% | kinase still bound, per cent of control (STK38L (human)): 100% | kinase still bound, per cent of control (PRKX (human)): 100% | kinase still bound, per cent of control (MST1R (human)): 100% | kinase still bound, per cent of control [1]: 100% | kinase still bound, per cent of control (NEK6 (human)): 100% | kinase still bound, per cent of control (CAMKK1 (human)): 100% | kinase still bound, per cent of control (MARK1 (human)): 100% | kinase still bound, per cent of control (ZAP70 (human)): 100% | kinase still bound, per cent of control (STK25 (human)): 100% | kinase still bound, per cent of control (SLK (human)): 100% | kinase still bound, per cent of control (SIK2 (human)): 100% | kinase still bound, per cent of control (INSRR (human)): 100% | kinase still bound, per cent of control (CDC42BPA (human)): 100% | kinase still bound, per cent of control (CLK3 (human)): 100% | kinase still bound, per cent of control (EPHA3 (human)): 100% | kinase still bound, per cent of control (CAMK2D (human)): 100% | kinase still bound, per cent of control (ROS1 (human)): 100% | kinase still bound, per cent of control (CDK16 (human)): 1.9% | kinase still bound, per cent of control (ALK (human)): 100% | kinase still bound, per cent of control (PRKACB (human)): 100% | kinase still bound, per cent of control (RPS6KA1 KD1 (human)): 100% | kinase still bound, per cent of control (MAPK3 (human)): 100% | kinase still bound, per cent of control [2]: 100% | kinase still bound, per cent of control (IKBKE (human)): 100% | kinase still bound, per cent of control (TGFBR2 (human)): 100% | kinase still bound, per cent of control (NEK9 (human)): 100% | kinase still bound, per cent of control (GSK3A (human)): 20% | kinase still bound, per cent of control (MARK2 (human)): 100% | kinase still bound, per cent of control (CDK9 (human)): 10% | kinase still bound, per cent of control (MYO3A (human)): 100% | kinase still bound, per cent of control (SRPK2 (human)): 100% | kinase still bound, per cent of control (LATS2 (human)): 100% | kinase still bound, per cent of control (CLK1 (human)): 2.2% | kinase still bound, per cent of control (SYK (human)): 100% | kinase still bound, per cent of control (AXL (human)): 100% | kinase still bound, per cent of control (PRKAA1 (human)): 100% | kinase still bound, per cent of control (CSNK1A1L (human)): 100%
